pIC50: −log10 of the molar value.

The target in one assay is T1, Syk kinase (Homo sapiens, UniProt P43405).
T1 construct: purchased
Description: Syk kinase inhibition, Caliper LabChip off-chip mobility-shift kinase assay. It counts as biochemical. The settings on record: Caliper LabChip assay; read-out: Syk Enzyme IC50. The protocol: Compounds of the examples and Table 1 provided herein were assayed to measure their capacity to inhibit Syk kinase.
Compounds of the examples and Table 1 provided herein were assessed for their ability to inhibit Syk kinase by utilizing Caliper Life Sciences' proprietary LabChip™ technology. The off-chip incubation mobility-shift kinase assay uses a microfluidic chip to measure the conversion of a fluorescent peptide substrate to a phosphorylated product. The reaction mixture, from a microtiter plate well, is introduced through a capillary sipper onto the chip, where the nonphosphorylated substrate and phosphorylated product are separated by electrophoresis and detected via laser induced fluorescence. […] The phosphorylated product migrates through the chip faster than the non-phosphorylated substrate, and signals from the two forms of the peptide appear as distinct peaks. Caliper's data analysis software (HTSWA) determines peak heights, from which the ratio of product to the peak sum P/(P+S) and percent (%) conversion is calculated. This value is used to compare compound wells to control wells present on the plate, and thereby determine the % inhibition values for the compound. The formula used to calculate % inhibition is as follows, where C100% is the average % conversion of the 100% activity wells and Co% is the average % conversion of the 0% activity wells: (1−(% conversionofsample−C0%)/(C100%−C0%))*100.
Compounds (10 mM stocks in 100% DMSO) are diluted to a final concentration of 5 μM for single point inhibition experiments, and a series dilution of 10, 3, 1, 0.3, 0.1, 0.03, 0.01, 0.003, 0.001, 0.0003, 0.0001, and 0.00003 μM were made for IC50 determination. Generally, 12 μL of enzyme buffer containing purified kinase (various amount; various suppliers), 100 mM HEPES, pH 7.5, 1 mM DTT (Calbiochem, 2333153), 10 mM MgCl2 (Sigma, M-1028) or 10 mM MnCl2 (Sigma, M-1787) (assay specific), and 0.002% Brij-35 (Sigma, B4184) are added to each well. Compound and enzyme are allowed to pre-incubate for 15 minutes. 12 μL of peptide/ATP buffer containing 100 mM HEPES, pH 7.5, 1.5 μM fluorescein-labeled peptide (specific to kinase of interest), ATP (at KM apparent, Sigma, A9187), and 0.002% Brij-35 is then added to each well to initiate the reaction. The final concentration of DMSO in the well is 4%. Generally, reactions are incubated for 1 to 1.5 hours at room temperature to obtain adequate conversion of peptide to phosphorylated product in the linear range of the reaction. Reactions are terminated with the addition of 45 μL of Stop Buffer (containing 20 mM EDTA). Plates are then read on the LabChip 3000 using a 12-sipper LabChip. % conversion values and % inhibition values are obtained as provided and IC50 curves of compounds are generated using GraphPad Prism Version 4 or 5.01, or XLfit Version 4.3.2. When using GraphPad Prism, a nonlinear curve fit using the sigmoidal dose response—variable slope fit was used to graph IC50 curves and determine IC50 values and hillslopes. When using XLfit, Fit Model 205 (4-Parameter Logistic Model) is used to generate and fit the IC50 curve.
With `Cc1ccnc(Nc2cc3ccn(CCO)c(=O)c3c(NC3CCS(=O)(=O)C3)n2)c1` (centres unmarked) [compound 974], the negative-log IC50 (pIC50) – broadly, the IC50 on a negative log10 scale, so that one unit is a factor of ten – was 6.69.

Take `CCn1ccc2cc(-c3cnc(N)nc3)nc(NC3(C)CCC3)c2c1=O` [compound 906]: the negative-log IC50 (pIC50) was 7.54. Take `[2H]C(C)(O)c1cc(Nc2cc3ccn(CCO)c(=O)c3c(NC(C)(C)C)n2)ncc1F` (centres unmarked) [compound 876]: the pIC50 was 7.82. For the molecule `Cc1ccnc(Nc2cc3ccn(C(C)C)c(=O)c3c(NC(C)(C)C)n2)c1` [compound 821], the pIC50 was 6.57. As to `COc1cc(Nc2cc3ccn(CCO)c(=O)c3c(NC(C)(C)C)n2)ncn1` [compound 735], the pIC50 is 7.30. The same measure, in the same setting: the result for `CC(C)(C)Nc1nc(Nc2cc(C(C)(C)C)ccn2)cc2ccn(CCO)c(=O)c12` [compound 616] reads 5.87; that for `CC(C)(C)Nc1nc(Nc2cc(C3CCNCC3)ncn2)cc2ccn(CCO)c(=O)c12` [compound 638], 7.02; that for `O=C(Cn1ccc2cc(Nc3cnccn3)nc(N[C@H]3CC[C@@H](O)CC3)c2c1=O)N1CCOCC1` [compound 1007], 6.88.

With `Cc1[nH]ncc1-c1ccnc(Nc2cc3ccn(CCO)c(=O)c3c(NC(C)(C)C)n2)c1` [compound 855], the pIC50 was 6.61. The same measure, in the same setting: as for `CCn1ccc2cc(Nc3cc(C)ccn3)nc(N[C@H]3CC[C@H](O)C3)c2c1=O` [compound 945], the figure is 7.64. As for `CC(C)(C)Nc1nc(Nc2cnccn2)cc2cc[nH]c(=O)c12` [compound 679], the negative-log IC50 (pIC50) is 7.92.

Consider `CC(C)(C)Nc1nc(Nc2cc(-c3ncccn3)ccn2)cc2ccn(CCO)c(=O)c12` [compound 878], for which the pIC50 is 8.05. For `Cc1ccnc(Nc2cc3ccn(C)c(=O)c3c(Nc3ccc(C)c(S(N)(=O)=O)c3)n2)c1` [compound 654], the pIC50 is 6.60. In the case of `CCn1ccc2cc(Nc3cnccn3)nc(N[C@H](C)CO)c2c1=O` [compound 963], the pIC50 was 6.83.

As for `COCc1ccnc(Nc2cc3ccn(CCO)c(=O)c3c(NC(C)(C)C)n2)c1` [compound 709], the pIC50 was 7.96. The same measure, in the same setting: the result for `CC(C)(C)Nc1nc(Nc2cnccn2)cc2ccn(C[C@@H](O)c3ccccc3)c(=O)c12` [compound 676] reads 6.92. On to `[2H]C([2H])([2H])n1ccc2cc(-c3cnc(N)nc3)nc(N[C@H]3CC[C@@H](O)CC3)c2c1=O` [compound 1026], for which the pIC50 is 7.68. For `CC(C)(C)Nc1nc(-c2cnc(N)nc2)cc2ccn(C[C@H](O)CO)c(=O)c12` [compound 934], the pIC50 was 8.05. Regarding `O=c1c2c(NC3CCCC3)nc(Nc3cnccn3)cc2ccn1C[C@H](O)CO` [compound 775], the pIC50 was 8.00. Still for that read-out and setting: the result for `CC(C)(C)Nc1nc(-c2cnc(N)nc2)cc2ccn(CC3(CO)COC3)c(=O)c12` [compound 923] reads 8.00; that for `CC(C)(C)Nc1nc(-c2cnc(N)nc2)cc2ccn(CCCO)c(=O)c12` [compound 915], 7.59; that for `CC(C)(C)Nc1nc(Nc2cc(C(O)CN)ccn2)cc2ccn(CCO)c(=O)c12` (centres unmarked) [compound 612, 6-(4-(2-amino-1-hydroxyethyl)pyridin-2-ylamino)-8-(tert-butylamino)-2-(2-hydroxyethyl)-2,7-naphthyridin-1(2H)-one], 6.34. Consider `CC(C)(C)Nc1nc(Nc2cc(C(C)(C)O)ncn2)cc2ccn(CC(O)CO)c(=O)c12` (centres unmarked) [compound 730], for which the pIC50 was 7.38.

The assay is the same for the next values; noted with them: read-out: Syk Enzyme IC50.
`COC[C@H](C)Nc1nc(Nc2cc(C)ccn2)cc2cc[nH]c(=O)c12` [compound 530]: the negative-log IC50 (pIC50) was 7.01. The same measure, in the same setting: the result for `Cc1ccnc(Nc2cc3ccn(C)c(=O)c3c(Nc3cccc(C(N)=O)c3)n2)c1` [compound 507] reads 6.87; that for `COCCN1CCN(c2n[nH]c3cc(Nc4nc(-c5cnc(OC)nc5)cc5cc[nH]c(=O)c45)ccc23)CC1` [compound 216], 7.43. As for `O=c1[nH]ccc2cc(Nc3ccccn3)nc(N3CCCC3)c12` [compound 279], the negative-log IC50 (pIC50) was 5.85.

For the molecule `COc1cncc(-c2cc3cc[nH]c(=O)c3c(Nc3ccc(C4CCN(CCC(C)(C)C)CC4)c(C)c3)n2)n1` [compound 61], the pIC50 was 6.80. The same measure, in the same setting: as for `Cc1cc(Nc2nc(Nc3ccc(Cl)cn3)cc3cc[nH]c(=O)c23)ccc1C1CCN(C2CC2)CC1` [compound 250], the figure is 5.68; as for `CCn1ccc2cc(Nc3cnccn3)nc(NC(C)(C)CO)c2c1=O` [compound 471], 7.00.

For `COc1cncc(-c2cc3cc[nH]c(=O)c3c(Nc3ccc(C4CCN(CC(C)C#N)CC4)c(C)c3)n2)n1` (centres unmarked) [compound 178], the pIC50 was 7.21. Same read-out and setting: as for `C/C=C/c1cc2cc[nH]c(=O)c2c(Nc2ccc(C3CCN(C4CC4)CC3)c(C)c2)n1` [compound 228], the figure is 5.78. The same measure, in the same setting: the result for `Cc1cc(Nc2nc(-c3cnn(CC(C)C)c3)cc3cc[nH]c(=O)c23)ccc1C1CCN(C2CC2)CC1` [compound 211] reads 6.71; that for `Cn1ccc2cc(Nc3cc(Cl)ccn3)nc(NC3CCC3)c2c1=O` [compound 544], 6.09. With `COc1cncc(-c2cc3cc[nH]c(=O)c3c(Nc3ccc(C4CCN(C(=O)[C@@H](C)OC)CC4)c(C)c3)n2)n1` [compound 57], the pIC50 is 7.33. The same measure, in the same setting: as for `COc1cncc(-c2cc3cc[nH]c(=O)c3c(Nc3ccc(CCN4CCN5CCCC5C4)cc3)n2)n1` (centres unmarked) [compound 7], the figure is 7.28. On the same count and under the same terms, as for `Cc1ccnc(Nc2cc3cc[nH]c(=O)c3c(Nc3ccc(N4CCO[C@H](C)C4)c(C)c3)n2)c1` [compound 584], the figure is 5.57; as for `COc1ncc(-c2cc3cc[nH]c(=O)c3c(Nc3ccc(C4CN(C)C4)cc3)n2)cn1` [compound 139], 7.47.

As for `COc1cncc(-c2cc3cc[nH]c(=O)c3c(Nc3ccc(CCN4CCN(CCC#N)CC4)cc3)n2)n1` [compound 66], the pIC50 is 7.26. For the molecule `Cc1ccnc(Nc2cc3cc[nH]c(=O)c3c(NC[C@@H](C)O)n2)c1` [compound 513], the pIC50 was 7.15.

For `CN1CCCN(CCc2ccc(Nc3nc(-c4cncnc4)cc4cc[nH]c(=O)c34)cc2)CC1` [compound 435], the negative-log IC50 (pIC50) was 7.07. On the same count and under the same terms, the result for `O=c1[nH]ccc2cc(-c3cncnc3)nc(Nc3ccc(C4CCNCC4)c(F)c3)c12` [compound 194] reads 7.55; that for `O=C(N1CC2CC(C1)c1cc(Nc3nc(-c4cnccn4)cc4cc[nH]c(=O)c34)ccc12)C(F)(F)F` (centres unmarked) [compound 97], 5.60; that for `CCCN1CCC(c2ccc(Nc3nc(-c4cncc(OC)n4)cc4cc[nH]c(=O)c34)cc2C)CC1` [compound 55], 7.48.

In the case of `Cc1ccnc(Nc2cc3ccn(CCO)c(=O)c3c(NC(C)(C)CO)n2)c1` [compound 495], the pIC50 was 7.28.

As for `Cn1ccc2cc(Nc3cnccn3)nc(Nc3cccc(S(N)(=O)=O)c3)c2c1=O` [compound 339], the pIC50 is 6.06.

Regarding `Cc1ccc(-c2cc3cc[nH]c(=O)c3c(Nc3ccc(CCN4CCCN(C)CC4)cc3)n2)cn1` [compound 437], the pIC50 is 6.99. The same measure, in the same setting: the result for `COCCCN1CCC(c2ccc(Nc3nc(-c4cncnc4)cc4cc[nH]c(=O)c34)cc2F)CC1` [compound 197] reads 7.46; that for `CCN1CCN(CCc2ccc(Nc3nc(-c4cncnc4)cc4c(F)c[nH]c(=O)c34)cc2)CC1` [compound 438], 6.54; that for `CC(=O)c1cc2cc[nH]c(=O)c2c(Nc2ccc(N3CCO[C@H](C)C3)c(C)c2)n1` [compound 220], 6.09. Same read-out and setting: as for `CCn1ccc2cc(Nc3cnccn3)nc(NC(C)(C)C)c2c1=O` [compound 465], the figure is 6.83; as for `O=c1[nH]ccc2cc(-c3cnccn3)nc(Nc3ccc4c(c3)C3CNCC4C3)c12` (centres unmarked) [compound 98], 5.82; as for `Cn1ccc2cc(Nc3cnccn3)nc(NC3CCC3)c2c1=O` [compound 460], 7.80.

Regarding `Cc1ccnc(Nc2cc3cc[nH]c(=O)c3c(NC(C)CO)n2)c1` (centres unmarked) [compound 265], the pIC50 was 7.74. With `CCN1CCC[C@@H]1CNc1nc(Nc2cc(C)ccn2)cc2cc[nH]c(=O)c12` [compound 589], the pIC50 is 5.25. Still for that read-out and setting: as for `Cn1ccc2cc(Nc3cnccn3)nc(NCC(F)(F)F)c2c1=O` [compound 464], the figure is 7.09.

Source of the values: patent publication US20110053897A1 (IRM LLC, priority 2009, published 2011).
